This passage reports IC50 results from US20110306597A1, “Nicotinamide Derivatives” (priority 2008, published 2011).

pIC50: −log10 of the molar value.

Usually pIC50 stands for −log10 of the IC50, conventionally taken in molar units.

Chain of human recombinant H-PGDS (O60760 whole entry): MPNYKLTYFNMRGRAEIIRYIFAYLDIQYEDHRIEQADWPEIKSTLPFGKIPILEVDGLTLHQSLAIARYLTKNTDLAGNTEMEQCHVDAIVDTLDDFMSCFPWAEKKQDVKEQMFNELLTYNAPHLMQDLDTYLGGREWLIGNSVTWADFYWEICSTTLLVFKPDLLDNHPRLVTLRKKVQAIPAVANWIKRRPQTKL

This assay addresses human recombinant H-PGDS (Homo sapiens, UniProt O60760). Description: Slightly modified h-PGDS TBA enzyme assay (Examples 529, 565, 566, 574-588 and 591). Format: biochemical. Conditions: slightly modified assay (Examples 529, 565, 566, 574-588 and 591); 1:40,000 human recombinant H-PGDS. The protocol:
Prostaglandin D Synthase (PGDS) converts the substrate prostaglandin H2 (PGH2) to prostaglandin D2. The depletion of PGH2 was measured via an Fe(II) reduction of the remaining PGH2 to malondialdehyde (MDA) and 12-HHT. The enzyme assay is based on the quantitative formation of a fluorescent complex from the non-fluorescent compounds MDA and 2-thiobarbituric acid (TBA), substantially as described in U.S. patent application publication US-2004/152148 by Lombardt.
Examples 529, 565, 566, 574-588 and 591 were tested in a slightly modified assay: The enzyme assay (30 μls during biological process) contained 100 mM Trizma pH 8.0, 100 μM MgCl2, 0.1 mg/ml IgG Rabbit serum, 5.0 μM PGH2 (Cayman; ethanol solution, #17020), 2.5 mM L-Glutathione (Sigma; reduced form #G4251), 1:40,000 human recombinant H-PGDS (from 1 mg/ml), 0.5% DMSO and inhibitor (varying concentration). 3 μls of diluted inhibitor (dissolved in DMSO) was plated into a 384-well assay plate followed by a 24 μl addition of an enzyme solution containing h-PGDS, Trizma, MgCl2, IgG and L-Glutathione. After pre-incubation of inhibitor and enzyme solution for 10 minutes at room temperature, the reaction was initiated with a 3 μl addition of substrate solution in 10 mM HCl. The reaction was terminated after 40 second by the addition of 3 μl stop buffer containing FeCl2 and citric acid. After addition of 45 μls of TBA plates were heated for one hour in a 70° C. oven. Plates were cooled at room temperature overnight and read on a plate reader the next day with excitation @ 530 nm and emission @ 560 nm. IC50's of inhibitors were calculated with a 4-parameter fit using 11 inhibitor concentrations in duplicate with ½ log serial dilutions. Controls on each plate included no inhibitor (zero % effect) and an inhibitor 500-fold in excess of its' IC50 (100% effect). The highest inhibitor concentration tested was typically 10 μM.
In the case of `O=C(N[C@H]1C[C@H]2CC[C@@H](C1)N2)c1ccc(-c2cccc(F)c2)nc1` [Example 584, N-[(3-endo)-8-azabicyclo[3.2.1]oct-3-yl]-6-(3-fluorophenyl)nicotinamide], the pIC50 was 6.71.

`CCCN1[C@@H]2CC[C@H]1C[C@@H](NC(=O)c1ccc(-c3cccc(F)c3)nc1)C2` [Example 585, 6-(3-Fluorophenyl)-N-[(3-endo)-8-propyl-8-azabicyclo[3.2.1]oct-3-yl]nicotinamide]: the pIC50 was 6.75. Take `CC(C)(C)OC(=O)N1[C@@H]2CC[C@H]1C[C@@H](NC(=O)c1ccc(-c3cccc(F)c3)nc1)C2` [Example 586, tert-Butyl (3-endo)-3-({[6-(3-fluorophenyl)pyridin-3-yl]carbonyl}amino)-8-azabicyclo[3.2.1]octane-8-carboxylate]: the pIC50 was 8.06.

On to `O=C(N[C@@H]1C[C@H]2CC[C@@H](C1)N2)c1ccc(-c2cccc(F)c2)nc1` [Example 587, N-[(3-exo)-8-azabicyclo[3.2.1]oct-3-yl]-6-(3-fluorophenyl)nicotinamide], for which the pIC50 is 7.41. As to `CC(C)(C)OC(=O)N1[C@@H]2CC[C@H]1C[C@H](NC(=O)c1ccc(-c3cccc(F)c3)nc1)C2` [Example 588, tert-Butyl (3-exo)-3-({[6-(3-fluorophenyl)pyridin-3-yl]carbonyl}amino)-8-azabicyclo[3.2.1]octane-8-carboxylate], the pIC50 is 7.81. Turning to `CC(C)S(=O)(=O)N1[C@@H]2CC[C@H]1C[C@H](NC(=O)c1ccc(-c3cccc(F)c3)nc1)C2` [Example 591, 6-(3-Fluorophenyl)-N-[(3-exo)-8-(isopropylsulfonyl)-8-azabicyclo[3.2.1]oct-3-yl]nicotinamide], the pIC50 was 8.42.
